Experimental findings from US20140243292A1, “SUBSITUTED 2-(CHROMAN-6-YLOXYL)-THIAZOLES AND THEIR USE AS PHARMACEUTICALS” (Sanofi, priority 2011, published 2014) are described below.

Structures are written as SMILES. Counter-ions that a name gives are not always drawn.

In the assay the target is T1, human NCX1 (Homo sapiens, UniProt P32418).
T1 construct: expressed in transfected cells
Nature of the assay: NCX1 inhibition, reverse mode (Ca2+ influx into cells), FLIPR Fluo-4 assay. It is filed as cell-based. Particulars: for IC50: inhibition of NCX1 in reverse mode (Ca2+ influx into cells), read-out: NCX1rv IC50; for inhibition at 30 µM: NCX1 reverse mode, read-out: Inhibition in % at 30 μM (NCX1rv; IC50 value not determined). From the text:
The sodium/calcium exchanger NCX1 can transport calcium ions and sodium ions through the cell membrane. The transport is an exchange of Ca^2+ and Na^+ in two directions depending on membrane potential and ion gradients. At the first direction, named “forward mode” or “calcium export mode”, Ca^2+ is transported out of the cell and Na^+ is transported into the cell. At the other direction, named “reverse mode” or “calcium import mode”, the transport directions are vice versa. The effect of the compounds of the invention on NCX1 was determined in CHO cells stably expressing human NCX1 (gene symbol SLC8A1; cf. WO 2009/115238). The assay is based on the monitoring of intracellular Ca^2+ concentrations using a calcium-sensitive fluorescence dye which is detected by means of a FLIPR device (Fluorimetric Imaging Plate Reader, Molecular Devices).
The assay is based on the monitoring of intracellular Ca^2+ concentrations using the calcium-sensitive dye Fluo-4. CHO cells expressing NCX1 were loaded with the dye by means of the acetoxymethyl ester Fluo-4 AM (Invitrogen, F14202), which is cleaved intracellularly by esterase activity to yield the charged species of free Fluo-4. After an preincubation period with the test compound, Gramicidine (Sigma, G5002) was added. Gramicidine is an ionophor for Na^+ ions mediating an increase of intracellular Na^+ ions. Consequently, intracellular Na^+ ions are exchanged against extracellular Ca^2+ ions (Ca^2+ influx, reverse mode). The intracellular elevation of Ca^2+ ions was detected by measuring the fluorescence of Fluo-4 at a wavelength of 520 nm by a FLIPR device.
Briefly, for the reverse mode transport assay 18000 cells per well were seeded into a 96 well microplate (Corning COSTAR 3904) and incubated overnight in culture medium (1× Nut Mix F12 (Ham) (Gibco, 21765-029); 10% (v/v) fetal calf serum (PAA Gold, A15-649); 450 μg/ml Geneticin (Gibco, 10131-027)). A total volume of 100 μl medium per well was used. For the preparation of the FLIPR assay, the culture medium was removed from the plates and 100 μl of dye solution (2 μM Fluo-4 AM; 0.02% (v/v) Pluronic F-127 (20%, Invitrogen, P3000MP); 0.1% (v/v) bovine albumin solution (30% (v/v), Sigma, A9205) in assay buffer (133.8 mM NaCl (Sigma, S5886); 4.7 mM KCl (Sigma, P3911); 1.25 mM MgCl2 (Merck, 1.05833.0250); 3.5 mM CaCl2 (Merck, 1.02083.0250); 5 mM glucose (Sigma, G7021); 10 mM Hepes (Sigma, H4034); 0.01% (v/v) Pluronic F-127 (5%, Sigma, P2443); 2.5 mM Probenecid (Maybridge, SB00915EB); pH 7.4)) were added into each well. The plates were incubated in the dark at room temperature for 80 min. After the incubation period, the dye solution was removed and the wells were washed with 100 μl of assay buffer. Then 80 μl of a solution of the test compound in assay buffer in different concentrations were added into the wells. The plates were incubated at 16° C. for 45 min. Meanwhile a 60 μM solution of Gramicidine in assay buffer (4° C.) was prepared and stored in the wells of a 96 well microplate (96 well microplate, polypropylene, U-shape (Greiner Bio-One, 650201)) at 4° C. until measurement was started. The fluorescence monitoring was performed at 240 measuring points with measurement intervals of 2 sec. After the fifth measuring point, 40 μl of the Gramicidine solution were added to each well of the assay plates to give a final Gramicidine concentration of 20 μM. For the determination of the IC50 values the minimal fluorescence value was subtracted from the maximal fluorescence value for all measuring points. The calculation of the IC50 values via the percentage inhibitions of Ca^2+ influx into cells (reverse mode) effected by the test compound was performed in Biost@t Speed 2.0.

As for `CC(C)CCNCc1cnc(Oc2ccc3c(c2)CCC(c2ccccc2)O3)s1` (stereo not drawn) [compound 115], the IC50 was determined as 0.6 µM.
As to `CC(C)(C)NCc1cnc(Oc2ccc3c(c2)CCC(c2ccccc2)O3)s1` (stereo not drawn) [compound 118], the IC50 came to 0.4 µM.
As for `CN(Cc1ccnc(N2CCCC2)c1)C(=O)c1cnc(Oc2ccc3c(c2)CCC(c2ccccc2)O3)s1` (stereo not drawn) [compound 26], the half-maximal inhibitory concentration (IC50) came to 0.3 µM.
On the same count and under the same terms, then `Cc1c(CNC(=O)c2cnc(Oc3ccc4c(c3)CC[C@@H](c3ccccc3)O4)s2)cnn1C` [compound 62], with 0.3 µM.
The same measure, in the same setting: then `O=C(NCc1ccncc1)c1cnc(Oc2ccc3c(c2)CCC(c2ccccc2)O3)s1` (stereo not drawn) [compound 4], with 0.3 µM.
With `Cc1ccccc1C1CCc2cc(Oc3nc(C)c(C(=O)NCCN4CCNC4=O)s3)ccc2O1` (stereo not drawn) [compound 333], the IC50 is 0.6 µM.
`NC1CC(NC(=O)c2cnc(Oc3ccc4c(c3)CC[C@@H](c3ccccc3)O4)s2)C1` (stereo partly drawn) [compound 257]: the IC50 worked out at 0.4 µM.
On the same count and under the same terms, then `Cc1ccccc1C1CCc2cc(Oc3ncc(C(=O)NCc4ccncc4)s3)ccc2O1` (stereo not drawn) [compound 179], with 0.5 µM; and `COC(=O)[C@@H]1CCCN1C(=O)c1cnc(Oc2ccc3c(c2)CC[C@@H](c2ccccc2)O3)s1` [compound 185], with 0.5 µM.
Still for that read-out and setting: then `Cc1nc(Oc2ccc3c(c2)CCC(c2ccccc2)O3)sc1C(=O)NCCc1ccncc1` (stereo not drawn) [compound 170, hydrochloride], with 0.3 µM; and `Cc1cccc(C)c1C1CCc2cc(Oc3ncc(C(=O)NCCO)s3)ccc2O1` (stereo not drawn) [compound 337], with 7.6 µM.
For `O=C(Cc1cccnc1)NCc1cnc(Oc2ccc3c(c2)CCC(c2ccccc2)O3)s1` (stereo not drawn) [compound 16, hydrochloride], the half-maximal inhibitory concentration (IC50) was 0.1 µM.
Regarding `N[C@@H](CO)C(=O)NCc1cnc(Oc2ccc3c(c2)CCC(c2ccccc2)O3)s1` (stereo partly drawn) [compound 340, hydrochloride], the 50% inhibitory concentration (IC50) was found to be 0.9 µM.
Still for that read-out and setting: then `CCOC(=O)[C@H](Cc1ccccc1)NC(=O)c1cnc(Oc2ccc3c(c2)CCC(c2cccnc2)O3)s1` (stereo partly drawn) [compound 262], with 0.8 µM.
Take `CCOC(=O)C[C@H](O)[C@H](CC1CCCCC1)NC(=O)c1cnc(Oc2ccc3c(c2)CC[C@@H](c2ccccc2)O3)s1` [compound 227]: the inhibition at 30 µM was 30%.
Take `O=C(N[C@@H](Cc1ccccc1)C(=O)O)c1cnc(Oc2ccc3c(c2)CCC(c2cccnc2)O3)s1` (stereo partly drawn) [compound 271]: the concentration for half-maximal inhibition (IC50) came to 12.1 µM.
The same measure, in the same setting: then `c1ccc(C2CCc3cc(Oc4ncc(CNCc5cccnc5N5CCOCC5)s4)ccc3O2)cc1` (stereo not drawn) [compound 145], with 0.9 µM; and `CCOC(=O)[C@H](Cc1ccccc1)NC(=O)c1cnc(Oc2ccc3c(c2)CC[C@@H](c2ccccc2)O3)s1` [compound 219], with 4.8 µM.
`Cc1ccn(CC(=O)NCc2cnc(Oc3ccc4c(c3)CCC(c3ccccc3)O4)s2)n1` (stereo not drawn) [compound 74]: the half-maximal inhibitory concentration (IC50) was 0.3 µM.
On the same count and under the same terms, then `Cc1nc(S(=O)(=O)NCc2cnc(Oc3ccc4c(c3)CCC(c3ccccc3)O4)s2)cn1C` (stereo not drawn) [compound 163], with 0.4 µM; and `Cc1nn(C)cc1C(C)NC(=O)c1cnc(Oc2ccc3c(c2)CCC(c2ccccc2)O3)s1` (stereo not drawn) [compound 23], with 0.8 µM.
Same read-out and setting: then `CC(C)Oc1cccc(C2CCc3cc(Oc4ncc(C(=O)NCc5ccncc5)s4)ccc3O2)c1` (stereo not drawn) [compound 96], with 0.8 µM; and `CC[C@@H](C)[C@H](CO)NC(=O)c1cnc(Oc2ccc3c(c2)CC[C@@H](c2ccccc2)O3)s1` [compound 209], with 0.3 µM; and `O=C(NCc1ccnc(N2CCCC2)c1)c1cnc(Oc2ccc3c(c2)CCC(c2ccccc2)O3)s1` (stereo not drawn) [compound 25], with 0.4 µM.
With `Cc1cc(C)nc(CNCc2cnc(Oc3ccc4c(c3)CCC(c3ccccc3)O4)s2)n1` (stereo not drawn) [compound 143], the half-maximal inhibitory concentration (IC50) came out at 0.5 µM.
`O=C(O)CNC(=O)c1cnc(Oc2ccc3c(c2)CCC(c2cccnc2)O3)s1` (stereo not drawn) [compound 260]: the inhibition at 30 µM was 38%.
Consider `CC(C)(C)OC(=O)CNC(=O)c1cnc(Oc2ccc3c(c2)CCC(c2ccccc2)O3)s1` (stereo not drawn) [compound 306], for which the 50% inhibitory concentration (IC50) is 0.5 µM.
Still for that read-out and setting: then `CC(O)CNC(=O)c1cnc(Oc2ccc3c(c2)CCC(c2ccccc2)O3)s1` (stereo not drawn) [compound 354], with 0.16 µM.
With `Cc1c(C(=O)NCc2cnc(Oc3ccc4c(c3)CCC(c3ccccc3)O4)s2)cnn1C` (stereo not drawn) [compound 71], the IC50 came out at 0.7 µM.
Turning to `Cn1nccc1CNC(=O)c1cnc(Oc2ccc3c(c2)CCC(c2ccccc2)O3)s1` (stereo not drawn) [compound 5], the IC50 turned out to be 0.4 µM.
For the compound `NCc1cnc(Oc2ccc3c(c2)CCC(c2ccccc2)O3)s1` (stereo not drawn) [compound 57, C-[2-(2-Phenyl-chroman-6-yloxy)-thiazol-5-yl]-methylamine], the IC50 stood at 0.1 µM.
Take `O=C(NCCO)c1cnc(Oc2ccc3c(c2)CC[C@@H](c2ccccc2)O3)s1` [compound 204]: the IC50 turned out to be 0.1 µM.
Same read-out and setting: then `Cc1ccc(C2CCc3cc(Oc4ncc(C(=O)NCc5ccno5)s4)ccc3O2)cn1` (stereo not drawn) [compound 232], with 1.5 µM; and `c1ccc(C2CCc3cc(Oc4ncc(CN5CCOCC5)s4)ccc3O2)cc1` (stereo not drawn) [compound 117], with 0.3 µM; and `Cc1noc(C)c1C(=O)NCc1cnc(Oc2ccc3c(c2)CCC(c2ccccc2)O3)s1` (stereo not drawn) [compound 65], with 0.2 µM.
In the case of `Cc1nn(C)c(C)c1C(=O)NCc1cnc(Oc2ccc3c(c2)CCC(c2ccccc2)O3)s1` (stereo not drawn) [compound 67], the 50% inhibitory concentration (IC50) was found to be 0.3 µM.
Same read-out and setting: then `Cc1nc(Oc2ccc3c(c2)CC[C@@H](c2ccccc2)O3)sc1C(=O)NCc1ccnc(Cl)c1` [compound 178, 4-Methyl-2-((S)-2-phenyl-chroman-6-yloxy)-thiazole-5-carboxylic acid (2-chloro-pyridin-4-ylmethyl)-amide hydrochloride], with 0.4 µM; and `O=C(NCc1cnc(Oc2ccc3c(c2)CCC(c2ccccc2)O3)s1)c1ccncn1` (stereo not drawn) [compound 89], with 0.2 µM.
On the same count and under the same terms, then `O=C(c1cnc(Oc2ccc3c(c2)CCC(c2ccccc2)O3)s1)N1CCOCC1` (stereo not drawn) [compound 314], with 0.1 µM; and `c1ccc([C@@H]2CCc3cc(Oc4ncc(CNCc5ccno5)s4)ccc3O2)cc1` [compound 210], with 0.1 µM.
Same read-out and setting: then `Cc1nccc(CNC(=O)c2cnc(Oc3ccc4c(c3)CCC(c3cccc(F)c3)O4)s2)n1` (stereo not drawn) [compound 56, hydrochloride], with 0.2 µM; and `Cc1nc(C)c(C(=O)NCc2cnc(Oc3ccc4c(c3)CCC(c3ccccc3)O4)s2)o1` (stereo not drawn) [compound 78], with 0.3 µM; and `Cn1cnc(S(=O)(=O)NCc2cnc(Oc3ccc4c(c3)CCC(c3ccccc3)O4)s2)c1` (stereo not drawn) [compound 50, 1-Methyl-1H-imidazole-4-sulfonic acid [2-(2-phenyl-chroman-6-yloxy)-thiazol-5-ylmethyl]-amide hydrochloride], with 0.2 µM.
With `Cc1cc(CNC(=O)c2cnc(Oc3ccc4c(c3)CC[C@@H](c3ccccc3)O4)s2)ccn1` [compound 274, hydrochloride], the half-inhibitory concentration (IC50) turned out to be 0.4 µM.
Same read-out and setting: then `NC1CCN(C(=O)c2cnc(Oc3ccc4c(c3)CC[C@@H](c3ccccc3)O4)s2)C1` (stereo partly drawn) [compound 292], with 0.3 µM; and `CC(Cc1ccccc1)(NC(=O)c1cnc(Oc2ccc3c(c2)CC[C@@H](c2ccccc2)O3)s1)C(=O)O` (stereo partly drawn) [compound 233], with 0.8 µM; and `CN1CCN(C(=O)c2cnc(Oc3ccc4c(c3)CCC(c3ccccc3)O4)s2)CC1` (stereo not drawn) [compound 313], with 0.4 µM.
Same read-out and setting: then `Cc1cnc(CNCc2cnc(Oc3ccc4c(c3)CCC(c3ccccc3)O4)s2)cn1` (stereo not drawn) [compound 135], with 0.5 µM.
